{
  "source": "patent EP1333824B1",
  "about": "“TREATMENT OF SEXUAL DYSFUNCTION WITH BOMBESIN RECEPTOR ANTAGONISTS” (Warner-Lambert Company LLC, priority 2000, dated 2002)",
  "assay_type_in_all_cases": "in vivo",
  "key": {"[1]": {"test_system": "Ovariectomised adult female Sprague Dawley rats", "experiment": "Female rat sexual proceptivity test (time investigating male vs female stimulus)", "details": "Example 1; i.p., 3 and 10mg/kg in 50% 2-hydroxypropyl-β-cyclodextrin, 1h before tests"}, "conscious male rat": {"test_system": "conscious male rat", "experiment": "Penile intracavernosal pressure in the conscious male rat (telemetry)", "procedure": "In addition to treating women with FSD, bombesin antagonists will be useful in treating male erectile dysfunction (MED. Both the non-selective BB1/2 antagonists (Compound 1; 10mg/kg sc) and the selective BB1 receptor antagonist (Compound 3; 15mg/kg sc) is pro-erectile in a conscious rat model of penile erection (Figures 24 and 25). Erectile responses were recorded by measuring intracavernosal pressure using surgically implanted telemetric device. The specific details the surgical procedures, data acquisition and analysis can be found in detail in Bemabe 1999.\nCompound 1 and compound 3 were dissolved in 50% β-cyclodextrin in saline. They were administered at a dose of 15mg/kg subcutaneously (sc). […] These increases equate to penile erection. Both Compounds 1 and 3 induced a number of erections in a similar manner to those observed with apomorphine or melanotan-II - both of which are clinically proven agents that are effective in the treatment of MED. Moreover the amplitude of the increases observed were similar to those observed with apomorphine or melanotan-II. The mechanism of action is thought to be similar to the effects on female genital flow ie CNS potentiation of the descending neuronal pathways that control penile erection."}, "[2]": {"test_system": "Female New Zealand rabbits", "experiment": "Pelvic nerve-stimulated female genital blood flow, anaesthetised rabbit model of sexual arousal", "procedure": "Female New Zealand rabbits (~2.5kg) were pre-medicated with a combination of Medetomidine (Domitor®) 0.5ml/kg i.m., and Ketamine (Vetalar®) 0.25ml/kg i.m. whilst maintaining oxygen intake via a face mask. The rabbits were tracheotomised using a Portex™ uncuffed endotracheal tube 3 ID., connected to ventilator and maintained at a ventilation rate of 30-40 breaths per minute, with an approximate tidal volume of 18-20 ml, and a maximum airway pressure of 10 cm H2O. Anaesthesia was then switched to Isoflurane and ventilation continued with O2 at 21/min. The right marginal ear vein was cannulated using a 23G or 24G catheter, and Lactated Ringer solution perfused at 0.5ml/min. The rabbit was maintained at 3% Isoflurane during invasive surgery, dropping to 2% for maintenance anaesthesia.\nThe left groin area of the rabbit was shaved and a vertical incision was made approximately 5cm in length along the thigh. The femoral vein and artery were exposed, isolated and then cannulated with a PVC catheter (17G) for the infusion of drugs and compounds. Cannulation was repeated for the femoral artery, inserting the catheter to a depth of 10cm to ensure that the catheter reached the abdominal aorta. This arterial catheter was linked to a Gould system to record blood pressure. Samples for blood gas analysis were also taken via the arterial catheter. Systolic and diastolic pressures were measured, and the mean arterial pressure calculated using the formula (diastolic x2 + systolic) ö3. Heart rate was measured via the pulse oxymeter and Po-ne-mah data acquisition software system (Ponemah Physiology Platform, Gould Instrument Systems Inc). A ventral midline incision was made into the abdominal cavity. The incision was about 5cm in length just above the pubis. The fat and muscle was bluntly dissected away to reveal the hypogastric nerve which runs down the body cavity. It was essential to keep close to the side curve of the pubis wall in order to avoid damaging the femoral vein and artery which lie above the pubis. The sciatic and pelvic nerves lie deeper and were located after further dissection on the dorsal side of the rabbit. Once the sciatic nerve is identified, the pelvic nerve was easily located. The term pelvic nerve is loosely applied; anatomy books on the subject fail to identify the nerves in sufficient detail. However, stimulation of the nerve causes an increase in vaginal and clitoral blood flow, and innervation of the pelvic region. The pelvic nerve was freed away from surrounding tissue and a Harvard bipolar stimulating electrode was placed around the nerve. […] A frequency response curve was determined at the start of each experiment in order to determine the optimum frequency to use as a sub-maximal response, normally 4Hz. […]"}},
  "data": [
    {"smiles": "COc1ccc(C2(CNC(=O)[C@](C)(Cc3c[nH]c4ccccc34)NC(=O)Nc3ccc([N+](=O)[O-])cc3)CCCCC2)nc1", "note": "[Compound (1), (S) 3-(1H-Indol-3-yl)-N-[1-(5-methoxy-pyridin-2-yl)-cyclohexyl-methyl]-2-methyl-2-[3-(4-nitro-phenyl)-ureido]-propionamide]", "values": [
      {"measurement": "MED (increase in percentage of time spent investigating the male stimulus)", "setting": "[1]", "value": 10, "unit": "mg/kg"},
      {"measurement": "erectile response (penile erection)", "setting": "conscious male rat; Compound 1 10mg/kg sc, Compound 3 15mg/kg sc", "value": "pro-erectile"},
      {"measurement": "intracavernosal pressure", "setting": "conscious male rat; one hour after 10mg/kg sc Compound 1, 45 minutes after 15mg/kg sc compound 3", "value": "significant increases in intracavernosal pressure"},
      {"measurement": "basal genital blood flow in the absence of PNS", "setting": "[2]; 15mg/kg sc", "value": "no effect"},
      {"measurement": "pelvic-nerve stimulated (PNS) increases in genital (vaginal and clitoral) blood flow", "setting": "[2]; 15mg/kg sc in 50% β-cyclodextrin in saline", "value": "potent enhancer"}
    ]}
  ]
}
